The text below walks through data of article PMC9738531, “Cholinesterases Inhibition, Anticancer and Antioxidant Activity of Novel Benzoxazole and Naphthoxazole Analogs” (Molecules, 2022).

The subject of data set [1] is normal keratinocytes HaCaT cells. Nature of the data set: LDH cytotoxicity assay, HaCaT normal cells. It counts as cell-based, human. The note with it: HaCaT, 72 h. The procedure: (§1) In view of the observed antiproliferative activity, the influence of the tested compounds on the normal human cells—normal mammary gland epiterial cells of the MCF10A line and the normal keratenocytes HaCaT line—was examined (Figure 5). The cells were treated with compounds 3, 8 and 10 in the concentration range from 0.1 µM to 25 µM for 72 h, after which the cell viability was tested by analysis of the level of released lactate dehydrogenase (LDH method).
(§2) Normal human epithelial cells from the mammary gland, MCF10A (a generous gift from our colleague Dr. Saraswati Sukumar (JHU), who obtained them recently from ATCC), and normal human keratinocytes HaCaT (also obtained from ATCC), were cultured in DMEM/F12 medium (Gibco), supplemented with 5% horse serum (Gibco), 5% FBS (Sigma-Aldrich Chemie GmbH, Taufkirchen, Germany ), penicillin streptomycin solution (1×) (Gibco) at 37 °C and 5% CO2. The cells were subcultured twice a week.
(§3) Human epiterial breast cells MCF10A and human keratinocytes HaCaT (1 × 10^4/mL) cells were placed on 96-well plates (Nunc, Roskilde, Denmark). The next day, the cells were exposed to increasing concentrations of compounds 3, 8 and 10 in 0.1, 0.25, 0.5, 1, 2.5, 5, 10 and 25 μM in fresh culture medium. Cytotoxicity was estimated based on the measurements of cytoplasmic lactate dehydrogenase (LDH) activity released from the damaged cells after the 72 h exposure to the compounds. The LDH assay was performed according to the manufacturer’s instructions (Cytotoxicity Detection KitPLUS LDH, Roche, Mannheim, Germany). Absorbance was measured using a microplate at two different wavelengths: “measurement wavelength” (492 nm) and “reference wavelength” (690 nm), using a microplate.

In data set [2] the target is T1, Acetylcholinesterase (AChE, E.C. 3.1.1.7, from human erythrocytes) (Homo sapiens, UniProt P22303).
T1 construct: Acetylcholinesterase (AChE, E.C. 3.1.1.7, from human erythrocytes); purchased Sigma-Aldrich (Steinheim, Germany); host or cells: human erythrocytes (natural source)
T1 sequence (P22303 other isoform, or with tags, fused parts or gaps): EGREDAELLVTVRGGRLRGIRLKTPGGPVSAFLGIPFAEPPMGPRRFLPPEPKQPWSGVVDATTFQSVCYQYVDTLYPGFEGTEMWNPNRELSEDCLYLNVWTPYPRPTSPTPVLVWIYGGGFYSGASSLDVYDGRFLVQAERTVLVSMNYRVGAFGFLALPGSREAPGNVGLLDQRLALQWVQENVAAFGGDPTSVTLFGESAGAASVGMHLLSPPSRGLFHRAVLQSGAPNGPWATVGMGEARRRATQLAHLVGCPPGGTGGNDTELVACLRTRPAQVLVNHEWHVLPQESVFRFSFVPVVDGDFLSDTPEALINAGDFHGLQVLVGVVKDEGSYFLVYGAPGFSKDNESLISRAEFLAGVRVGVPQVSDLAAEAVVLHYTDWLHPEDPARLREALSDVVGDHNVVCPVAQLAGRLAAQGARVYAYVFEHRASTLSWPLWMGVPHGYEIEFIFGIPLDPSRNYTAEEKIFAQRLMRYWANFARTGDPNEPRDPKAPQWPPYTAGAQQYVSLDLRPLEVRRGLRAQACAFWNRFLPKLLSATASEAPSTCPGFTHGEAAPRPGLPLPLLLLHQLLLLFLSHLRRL
Kind of data set: biochemical. As to conditions: for IC50: means ± SEM of three independent experiments. On the procedure: (§4) The compounds were evaluated by an in vitro assay as the AChE and BChE inhibitors. The studies were carried out using the modified Ellman’s method. […] The inhibitory activities against AChE and BChE of the newly-synthesized compounds were determined exactly, according to a previous paper. […] The samples were analysed in triplicate. IC50 values were designated from a dose–response curve obtained by plotting the percentage of inhibition versus the log concentration, using GraphPad Prism 8 software. […] AChE and BChE activity data were compared using the Kruskal–Wallis test at the significance level of 1%.

Data set [3] concerns the target T2, butyrylcholinesterase (BChE, E.C. 3.1.1.8, from equine serum) (Equus caballus, UniProt P81908).
T2 construct: butyrylcholinesterase (BChE, E.C. 3.1.1.8, from equine serum); purchased Sigma-Aldrich (Steinheim, Germany); host or cells: equine serum (natural source)
Nature of the data set: biochemical. The note with it: means ± SEM of three independent experiments. The procedure: as §4

Data set [4] concerns T47D (breast cancer) cells. Nature of the data set: SRB antiproliferative assay, T47D. The data set is classed as cell-based, human. The note with it: Homo sapiens, T47D, 72 h, means ± SD. The procedure: (§5) The compounds were also evaluated for their antiproliferative potencies against human cancer cell lines as the potential anticancer agents. […]. The results are presented in Table 3 and expressed as IC50 (μM). In that score, the highest potency was shown by the analogs from the naphtho[1,2-d][1,3]oxazole group 8–10, particularly by derivative 10 with a chlorine atom on the benzenediol moiety.
(§6) In the antiproliferative assay in vitro, the following human cell lines were applied: T47D (breast cancer), SW707 (rectal adenocarcinoma), A549 (non-small cell lung carcinoma) from the American Type Culture Collection (Rockville, MD, USA) and HCV29T (bladder cancer) from the Fibiger Institute, Copenhagen, Denmark. Cytotoxicity assay was performed after 72 h exposure of the cultured cells at the concentration ranging from 0.1 to 100 μg/mL of the tested agents. The SRB test measuring the cell proliferation inhibition in the in vitro culture was applied. The cellular material fixed with TCA was stained with 0.4% sulforhodamine B (Chemie GmbH, Steinheim, Germany) dissolved in 1% acetic acid (POCh, Gliwice, Poland) for 30 min.
(The SRB assay estimates cell density from bound dye.)

For data set [5], the system named is SW707 (rectal adenocarcinoma) cells. Kind of data set: SRB antiproliferative assay, SW707. It counts as cell-based, human. As to conditions: Homo sapiens, SW707, 72 h, means ± SD, read-out: IC50 SW 707. The procedure:
as §5, §6

Data set [6] has as its system HCV29T (bladder cancer) cells. Kind of data set: SRB antiproliferative assay, HCV29T. As to conditions: Homo sapiens, HCV29T, 72 h, means ± SD, read-out: IC50 HCV 29T. The data set is classed as cell-based, human. On the procedure:
as §5, §6

In another data set the target is T3, AChE (Homo sapiens, UniProt P22303).
T3 construct: Acetylcholinesterase (AChE, E.C. 3.1.1.7, from human erythrocytes); purchased Sigma-Aldrich (Steinheim, Germany); host or cells: human erythrocytes (natural source)
T3 sequence (P22303 other isoform, or with tags, fused parts or gaps): as above
Kind of data set: Kinetic study of AChE inhibition (Lineweaver-Burk). The data set is classed as biochemical. The note with it: for type of AChE inhibition: Lineweaver-Burk plot. On the procedure: Ellman’s method was used to prepare a kinetic characterization of AChE inhibition for compound 8. […]. The tested medium contained DTNB solution (0.4 mg/mL), AChE solution (2 U/mL), solution of the examined compound 8, and different concentrations of the ATCh iodide substrate solution (S). Absorbance was detected at 412 nm at room temperature after 10 min. The obtained data were calculated and presented on the Lineweaver–Burk plot. The determined the Michaelis–Menten constant (KM) and the maximum velocity of the enzyme (Vmax) values were used to define the type of enzyme inhibition.

Data set [7] in a line: DPPH free radical scavenging activity. The note with it: concentration scavenging 50% of DPPH radicals; means ± SD of three experiments. On the procedure:
To evaluate the antioxidant potential of compounds as radical scavengers versus the stable free radicals, 2,2-diphenylpicrylhydrazyl (DPPH) was applied. Antioxidant properties were expressed as the IC50 value—the concentration of compound required for scavenging 50% of DPPH radicals. […].
The DPPH free radical scavenging activities of the synthesized compounds were measured by DPPH, according to the method described in the paper. The free radical scavenging activity was measured as a decrease in the absorbance of DPPH, and calculated using the equation:DPPH scavenging effects (%) = […] [(A0 − A1)/A0]∙100](2) where: A0 was the absorbance of the control reaction and A1 absorbance in the presence of the sample of the analysed compounds [62]. The IC50 values were calculated as the concentration of compound required for scavenging 50% of DPPH [45]. Results were presented as the mean ± standard deviation (SD). The antioxidant activity data were compared using the one-way ANOVA test at the significance level 5%.
In general terms: DPPH is a stable violet radical that fades when it is reduced.

In data set [8] the test system is normal mammary gland MCF10A cells. Nature of the data set: LDH cytotoxicity assay, MCF10A normal cells. It counts as cell-based, human. The note with it: 72 h. The procedure: as §1, §2, §3
Data set [9] in a line: Lipophilicity by RP-18 HPLC chromatography. It counts as physicochemical. As to conditions: for -S (slope of log k vs MeOH fraction): MeOH/acetate buffer, pH 7.4; for log kw: pH 7.4, extrapolation to pure water as mobile phase. The source says:
The lipophilicity parameter was estimated for the tested compounds as it is an important feature that influences the pharmacokinetic properties of bioactive compounds [46, 47]. Lipophilicity also determines some biological activities, such as the antiproliferative or fungistatic activity. For lipophilicity determination, reversed-phase column chromatography was used, with the octadecyl C-18 stationary phase and MeOH as the organic modifier in the isocratic conditions.
HPLC measurements were performed using a liquid chromatograph (Knauer, Berlin, Germany) with a dual pump and a UV-visible detector. The measurements were made at 254 or 320 nm at room temperature. A Eurosil Bioselect C18 (5 μm, 300 × 4.6 mm) column was applied as the stationary phase. The mobile phase consisted of different volume mixtures of 20 mM acetate buffer as the aqueous phase, and MeOH as the organic modifier (pH 7.4). The different concentrations of MeOH from 0.5 to 0.90 (v/v) range was used, depending on the structure of the compound at 0.05 intervals. The flow rate was 1 mL/min. Retention time of an unretained solute (t0) was determined by the injection of a small amount of acetone dissolved in water.
Regular changes in the retention coefficients of compounds in a function of the organic modifier MeOH content in the mobile phase are described by the Soczewiński–Wachtmeister equation [56]:log k = log kw + S φ(1)
φ—the volume fraction of organic modifier (MeOH) in the mobile phase; log kw—the intercept; S—slope of the regression curve. Log kw refers to the retention parameter of a compound with pure water as the mobile phase.

The test system of data set [10] is A549 (non-small cell lung carcinoma) cells. Kind of data set: SRB antiproliferative assay, A549. The data set is classed as cell-based, human. As to conditions: Homo sapiens, A549, 72 h, means ± SD. On the procedure: as §5, §6
Data set [11] concerns human cancer cell lines (HCV29T, T47D, A549, SW707). Kind of data set: SRB antiproliferative assay, all studied cancer cell lines. It counts as cell-based. As to conditions: read-out: IC50 range against all studied cells. On the procedure:
as §5, §6

T2 sequence (P81908 whole entry): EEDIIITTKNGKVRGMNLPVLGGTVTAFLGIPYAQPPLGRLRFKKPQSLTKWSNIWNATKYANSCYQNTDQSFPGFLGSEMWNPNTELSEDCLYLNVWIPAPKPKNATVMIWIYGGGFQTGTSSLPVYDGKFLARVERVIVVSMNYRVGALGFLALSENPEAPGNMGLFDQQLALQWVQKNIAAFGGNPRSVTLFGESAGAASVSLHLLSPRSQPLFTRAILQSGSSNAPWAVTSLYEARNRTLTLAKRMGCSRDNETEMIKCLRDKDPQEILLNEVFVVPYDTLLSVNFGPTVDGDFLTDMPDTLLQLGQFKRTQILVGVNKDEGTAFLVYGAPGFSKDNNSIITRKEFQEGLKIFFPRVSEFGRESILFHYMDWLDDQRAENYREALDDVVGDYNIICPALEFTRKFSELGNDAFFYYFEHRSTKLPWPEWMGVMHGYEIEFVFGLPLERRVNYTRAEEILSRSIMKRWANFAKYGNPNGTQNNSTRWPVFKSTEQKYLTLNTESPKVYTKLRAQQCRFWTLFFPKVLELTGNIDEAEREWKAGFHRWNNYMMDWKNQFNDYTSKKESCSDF

As usually defined, the IC50 is the concentration that gives 50% inhibition. Consider `Oc1ccc(-c2nc3c(ccc4ccccc43)o2)c(O)c1` [Compound 8, 4-(Naphtho[1,2-d][1,3]oxazol-2-yl)benzene-1,3-diol], for which, in [1] (whole tested range 0.1–25 µM), the “toxicity to keratinocytes (LDH release)” value is on record as “toxic”. Moreover, the IC50 in [2] was found to be 0.058 ± 0.01 µM; in data set [3], 0.981 ± 0.015 µM; in data set [4], 2.86 ± 0.18 µM; in [5], 3.35 ± 0.16 µM; in [6] it was 2.5 ± 1.88 µM; in data set [7], 0.452 ± 0.031 µM. Also, in data set [10], the IC50 came out at 4.17 ± 0.19 µM. In addition, the entries for the “type of AChE inhibition” value at AChE and on AChE (listed as 4-(Naphtho[1,2-d][1,3]oxazol-2-yl)benzene-1,3-diol) were “mixed-type inhibitor” and “mixed-type inhibition”, respectively. The Vmax came out at 0.031 A/min on AChE (compound 8 concentration 25 nM), 0.023 A/min at AChE (compound 8 concentration 50 nM) and 0.021 A/min at AChE (compound 8 concentration 75 nM). Besides, the “influence on mammary cells viability (LDH)” value in [8] (0.1–5 µM) was “no influence”. Also, the “-S (slope of log k vs MeOH fraction)” value in data set [9] turned out to be 4.263. In addition, in data set [9], the log kw is reported as 3.936.
Take `Oc1cc(O)c(-c2nc3c(ccc4ccccc43)o2)cc1Cl` [Compound 10, 4-Chloro-6-(naphtho[1,2-d][1,3]oxazol-2-yl)benzene-1,3-diol]: the “toxicity to keratinocytes (LDH release)” value in data set [1] (tested concentration to 25 µM) was “not toxic”. In [2] (IC50 (BChE)/IC50 (AChE)), the “Selectivity for AChE” value is 1.278. Also, the IC50 worked out at 0.694 ± 0.011 µM in data set [2]; 0.887 ± 0.041 µM in data set [3]; 2.18 ± 1.05 µM in data set [4]; 2.89 ± 0.34 µM in data set [5]; 2.24 ± 0.83 µM in data set [6]; 0.633 ± 0.146 µM in data set [7]. Moreover, the results for the IC50 in data set [11] and in data set [10] were 2.18 to 2.89 µM and 2.71 ± 0.12 µM, respectively. In data set [8] (0.1–5 µM, vs control), the “change in level of lactate dehydrogenase” value is given as “statistically significant reduction”. In data set [8] (tested concentration to 25 µM), the “toxicity to normal breast cells (LDH release)” value is given as “not toxic”. For the same molecule, in [9], the “-S (slope of log k vs MeOH fraction)” value is recorded as 4.996. Moreover, the log kw in [9] was 4.518.
